Square brackets hold non-standard residues; d marks the D form. Peptide text beside a SMILES is read from it. Cya = N[C@@H](CS(=O)(=O)O)C(=O)O
Assays:
[1] = system: OIR mouse retina; experiment: RNA-seq gene expression in OIR mouse retina after intravitreal injection; format: in vivo; conditions: 10 μg/1 μL single intravitreal injection
From the text: Purpose: This study used RNA-seq to identify the genes regulated in the mouse retina following risuteganib intravitreal injection. Analysis of the specific genes regulated by risuteganib enables identification of biological processes and pathways modulated by the oligopeptide. […] Risuteganib causes reduced leukocyte attachment, reduced leukocyte trans-endothelial migration and reduced expression of complement 3 receptor. Methods: OIR mouse pups received 5 days of hyperoxia (75% O2) to obliterate developing retinal vessels. Following their return to room air, retinal neovascularization develops due to an imbalance in oxygen supply and demand. At the time of return to room air, both eyes of OIR pups received either vehicle injection or a single intravitreal injection of risuteganib solution at concentration of 10 μg/1 μL. A separate group of pups raised at room air served as control and received either vehicle or risuteganib solution injection consistent with the OIR mouse group. 5 days after injection, at the height of retinal neovascularization in OIR mice, all mice are sacrificed, retina tissue extracted for RNA isolation and RNA-seq. The generated reads were then aligned to the mouse reference genome/transcriptome and gene expression quantified for differential expression analysis and fold change calculation. The list of regulated genes was then submitted to identify biological processes and pathways that are regulated after risuteganib exposure compared to vehicle control in OIR mice or control mice, and in OIR retina compared to control retina that both received vehicle injections.

[2] = system: human retinal Müller cells (MIO-M1); experiment: MTT cell viability of human Müller cells (MIO-M1); format: cell-based; conditions: 24 hours, normalized to untreated control as 100%
Procedure: Purpose: To determine the effects of risuteganib and anti-VEGF drugs on the cell viability of cultured human retinal Müller cells (MIO-M1).
Methods: The immortalized human retinal Müller cell line (MIO-M1) was obtained from the Department of Cell Biology of the University College, London. Cells were cultured in Dulbecco's Modified Eagle's Medium (DMEM) and plated in 96-well plates for 24 hours before treatment with 0.5×, 1× or 2× concentrations of 1 mg/50 μL risuteganib, or 1× of ranibizumab, bevacizumab or aflibercept. Dosage was based on clinical dose of each compound. The experiments were repeated 3 times with 7-8 replicates each. After 24 hours of drug treatment, MTT NAD(P)H-dependent colorimetric assay was used to assess the number of viable cells present in the cultures. Absorbance ratios were normalized to untreated control as 100%. Statistical analysis was performed in GraphPad Prism software program.

C[C@@H](O)[C@H](NC(=O)[C@H](CS(=O)(=O)O)NC(=O)CNC(=O)[C@H](CCCNC(=N)N)NC(=O)CN)C(=O)N1CCC[C@H]1C(=O)O [risuteganib, Glycyl-L-arginylglycyl-3-sulfo-L-alanyl-L-threonyl-L-proline] (H-GRG[Cya]TP-OH)
Number of genes regulated in the OIR retina with statistical significance ([1]; 5 days after injection, vs vehicle): around 600 genes | Expression of integrin subunits α5, α6, αM, β1, β2, and β5 ([1]; OIR retina, 5 days after injection): down regulated | Number of biological pathways down-regulated ([1]; OIR retina, 10 of them up-regulated in OIR retina): 11 | Cell viability (MTT) ([2]; 0.5× of 1 mg/50 μL): 111.3±2.189 | Cell viability (MTT) ([2]; 1× of 1 mg/50 μL): 113.5±13.5 | Cell viability (MTT) ([2]; 2× of 1 mg/50 μL): 100.3±7.8

Reference: patent US20220031800A1, “PEPTIDES FOR TREATING NON-EXUDATIVE MACULAR DEGENERATION AND OTHER DISORDERS OF THE EYE” (Allegro Pharmaceuticals, LLC, priority 2019, published 2022)
